A short description of data set [1]: Cytotoxicity against human RD cells incubated for 48 hrs by MTT assay. The class given is toxicity, cell-based. (In general: Tetrazolium assays rely on reduction of a dye to a coloured formazan, in cell work by metabolically active cells.)
Data set [2] deals with Coxsackievirus B3. Description: Antiviral activity against CVB3 infected in HEp-2 cells assessed as protection from virus-induced cytopathogenicity incubated for 48 hrs by MTT assay. The class given is functional, organism-based. The conditions noted are these: Enterovirus B, HEp-2, 48 h. On the technique in general: Protection from cytopathic effect is a common read-out in antiviral testing.

The test system of data set [3] is Enterovirus. In words: Antiviral activity against EV71 infected in human RD cells assessed as inhibition of virus-induced cell death at 200 uM incubated for 48 hrs by MTT assay. The class given is functional, organism-based. The note with it: 71.
A short description of data set [4]: Cytotoxicity against human HEp-2 cells incubated for 48 hrs by MTT assay. The class given is toxicity, cell-based.
The subject of data set [5] is Coxsackievirus B3. In words: Antiviral activity against CVB3 infected in HEp-2 cells assessed as inhibition of virus-induced cell death at 200 uM incubated for 48 hrs by MTT assay. The class given is functional, organism-based.
Data set [6] in a line: Selectivity index, ratio of CC50 for cytotoxicity against HEp-2 cells to EC50 for antiviral activity against CVB3 infected in HEp-2 cells. The class given is toxicity, cell-based. The note with it: human, read-out: Ratio CC50/EC50.
Data set [7] concerns Enterovirus. Description: Antiviral activity against EV71 infected in human RD cells assessed as inhibition of virus-induced cell death at 100 uM incubated for 48 hrs by MTT assay relative to control. The class given is functional, 71. The conditions noted are these: Enterovirus, 71, RD.
Data set [8] relates to Enterovirus. In words: Antiviral activity against EV71 infected in human RD cells assessed as inhibition of virus-induced cell death at 25 uM incubated for 48 hrs by MTT assay relative to control. The class given is functional. The conditions noted are these: Enterovirus, 71, RD.
The test system of data set [9] is Enterovirus. Description: Antiviral activity against EV71 infected in human RD cells assessed as inhibition of virus-induced cell death at 25 to 100 uM incubated for 48 hrs by MTT assay. The class given is functional, organism-based. The note with it: 71, dose 25-100 µM.
The subject of data set [10] is Coxsackievirus B3. Description: Antiviral activity against CVB3 infected in HEp-2 cells assessed as inhibition of virus-induced cell death at 100 uM incubated for 48 hrs by MTT assay relative to control. The class given is functional. The note with it: Enterovirus B, HEp-2, 48 h.
Data set [11] concerns Coxsackievirus B3. In words: Antiviral activity against CVB3 infected in HEp-2 cells assessed as inhibition of virus-induced cell death at 25 uM incubated for 48 hrs by MTT assay relative to control. The class given is functional. The conditions noted are these: Enterovirus B.
The subject of data set [12] is Coxsackievirus B3. Description: Antiviral activity against CVB3 infected in HEp-2 cells assessed as inhibition of virus-induced cell death at 25 to 100 uM incubated for 48 hrs by MTT assay. The class given is functional, organism-based. The note with it: dose 25-100 µM.
Data set [13] in a line: Selectivity index, ratio of CC50 for cytotoxicity against human RD cells to EC50 for antiviral activity against EV71 infected in human RD cells. The class given is toxicity, cell-based. The conditions noted are these: read-out: Ratio CC50/EC50.
For data set [14], the system named is Coxsackievirus B3. In words: Antiviral activity against CVB3 infected in HEp-2 cells assessed as inhibition of virus-induced cell death at 50 uM incubated for 48 hrs by MTT assay relative to control. The class given is functional. The conditions noted are these: Enterovirus B.
The test system of data set [15] is Enterovirus. In words: Antiviral activity against EV71 infected in human RD cells assessed as inhibition of virus-induced cell death at 50 uM incubated for 48 hrs by MTT assay relative to control. The class given is functional. The conditions noted are these: Enterovirus, 71, RD.
In data set [16] the test system is Enterovirus. In words: Antiviral activity against EV71 infected in human RD cells assessed as protection from virus-induced cytopathogenicity incubated for 48 hrs by MTT assay. The class given is functional, organism-based. The conditions noted are these: Enterovirus, 71, RD.

The source made the active and inactive calls. The rule behind the calls is not given here.

A word on the CC50: it is the concentration that lowers cell viability or growth by half. A low value points to harm at low concentration. The term EC50 denotes the concentration needed to bring the measured effect to its halfway point. A word on the inhibition: it is the drop in the measured response relative to a control, in per cent. With `O=C1NC2(C(=O)O)CCC(=O)N2c2ccccc21` (stereo not given), the CC50 at 48 h stood at 323 µM in data set [1] and 296 µM in data set [4]. In the data set on Coxsackievirus B3 [2], the EC50 was 143 µM. In addition, the inhibition result in the data set with Enterovirus [3] is “inactive”. The inhibition result with Coxsackievirus B3 [5] was “Active; Compared To Ribavirin The Antiviral Effect Is Comparable Or Slightly Inferior”. For the same compound, the selectivity ratio in data set [6] came out at 2.1.
As for `CN1C(=O)c2ccccc2N2C(=O)CCC12C(=O)O` (stereo not given), the CC50 at 48 h in data set [1] stood at 327 µM; in data set [4], 276 µM. In addition, in the data set on Coxsackievirus B3 [2], the EC50 came to 152 µM. The inhibition result in the data set on Enterovirus [3] was “inactive”. The inhibition entry in the data set with Coxsackievirus B3 [5] is reported as “Active; Compared To Ribavirin The Antiviral Effect Is Comparable Or Slightly Inferior”. In addition, the selectivity ratio in [6] is 1.8.
For `O=C1NC2(C(=O)NCCc3c[nH]c4ccccc34)CCC(=O)N2c2ccccc21` (stereo not given), the values for the inhibition at 100 µM with Enterovirus [7] and in the data set with Coxsackievirus B3 [10] were 67% and 62.1%, respectively. The inhibition at 25 µM in the data set with Enterovirus [8] amounted to 64.1%; with Coxsackievirus B3 [11], 28.9%. Also, the inhibition entry with Enterovirus [9] was “Active”. Besides, the CC50 at 48 h in data set [1] stood at 208 µM; in data set [4] it was 185 µM. In addition, the “antiviral activity call (active/inactive)” value with Coxsackievirus B3 [12] is “Active”. Further, the selectivity ratio in data set [13] was 11.2; in [6] it was 2.8. The EC50 in the data set on Coxsackievirus B3 [2] is 65.8 µM; in the data set on Enterovirus [16], 18.6 µM. Moreover, the inhibition at 50 µM in the data set on Coxsackievirus B3 [14] stood at 44.4%; in the data set on Enterovirus [15], 73.1%.
Turning to `COC(=O)C(Cc1c[nH]c2ccccc12)NC(=O)C12CCC(=O)N1c1ccccc1C(=O)N2` (stereo not given), the results for the inhibition at 100 µM with Enterovirus [7] and in the data set with Coxsackievirus B3 [10] were 89.1% and 83.1%, respectively. Moreover, the inhibition at 25 µM with Enterovirus [8] was determined as 65.8%; in the data set with Coxsackievirus B3 [11] it was 30.8%. In addition, the inhibition entry in the data set with Enterovirus [9] is “Active”. Besides, the CC50 at 48 h is 230 µM in [1] and 177 µM in data set [4]. In the data set with Coxsackievirus B3 [12], the “antiviral activity call (active/inactive)” value is “Active”. In addition, the results for the selectivity ratio in data set [13] and in data set [6] were 8 and 4.1, respectively. In addition, the figures for the EC50 with Coxsackievirus B3 [2] and in the data set on Enterovirus [16] were 43 µM and 28.8 µM, respectively. The results for the inhibition at 50 µM in the data set with Coxsackievirus B3 [14] and in the data set on Enterovirus [15] were 45.7% and 74%, respectively.
Regarding `COC(=O)C(Cc1c[nH]c2ccccc12)NC(=O)C12CCC(=O)N1c1ccc(Cl)cc1C(=O)N2` (stereo not given), the figures for the inhibition at 100 µM in the data set on Enterovirus [7] and in the data set with Coxsackievirus B3 [10] were 74% and 63.7%, respectively. Moreover, the inhibition at 25 µM in the data set with Enterovirus [8] was 60.6%; in the data set on Coxsackievirus B3 [11], 36.6%. Further, in the data set with Enterovirus [9], the inhibition entry is “Active”. Moreover, the CC50 at 48 h amounted to 158 µM in data set [1] and 171 µM in [4]. Moreover, the “antiviral activity call (active/inactive)” value in the data set with Coxsackievirus B3 [12] was “Active”. Besides, the values for the selectivity ratio in [13] and in data set [6] were 6.4 and 3.1, respectively. The EC50 with Coxsackievirus B3 [2] stood at 55.6 µM; in the data set on Enterovirus [16], 24.8 µM. Also, the inhibition at 50 µM in the data set on Coxsackievirus B3 [14] is 45%; in the data set with Enterovirus [15] it was 75.3%.
In the case of `O=C1NC2(C(=O)O)CCC(=O)N2c2ccc(Cl)cc21` (stereo not given), the results for the CC50 at 48 h in [1] and in [4] were 317 µM and 245 µM, respectively. Also, in the data set on Coxsackievirus B3 [2], the EC50 came out at 142 µM. For the same compound, the inhibition entry in the data set on Enterovirus [3] was “inactive”. Also, in the data set on Coxsackievirus B3 [5], the inhibition entry was “Active; Compared To Ribavirin The Antiviral Effect Is Comparable Or Slightly Inferior”. In addition, the selectivity ratio in data set [6] amounted to 1.7.

For the origin of these results see ChEMBL document CHEMBL6114999, “Natural pyrrolo[1,2-a]quinazolinone derivatives: Design, synthesis, characterization, and bio-evaluation as novel antiviral agents” (Eur J Med Chem, 2025).
